In one data set the test system is Plasmodium falciparum. As to the kind of experiment: Antimalarial activity against CQ-sensitive Plasmodium falciparum 3D7 assessed as parasite growth inhibition incubated for 48 hrs by SYBR Green I dye based fluorescence assay. The format is functional, organism-based. Particulars: 3D7, 48 h.
A further data set relates to V79. Briefly: Cytotoxicity against Chinese hamster V79 cells measured after 24 hrs by MTT assay. The format is cell-based, Cricetulus griseus. Particulars: v79, 24 h. (Tetrazolium assays rely on reduction of a dye to a coloured formazan, in cell work by metabolically active cells.)
Data set [1] in a line: Cytotoxicity against human THP-1 cells assessed as reduction in cell viability measured after 72 hrs by MTT assay. The format is cell-based.
The test system of data set [2] is Trypanosoma brucei. Briefly: Antitrypanosomal activity against bloodstream form of Trypanosoma brucei Lister 427 assessed as parasite growth inhibition incubated for 72 hrs by resazurin staining based assay. Particulars: Lister 427, 72 h. The format is functional, organism-based.
The nature of data set [3]: Selectivity index, ratio of CC50 for cytotoxicity against human THP-1 cells to IC50 for antitrypanosomal activity against bloodstream form of Trypanosoma brucei Lister 427. The format is toxicity, cell-based. Particulars: read-out: Ratio CC50/IC50.
Data set [4] concerns Leishmania infantum. Briefly: Antileishmanial activity against axenic amastigote stage of Leishmania infantum infected in THP-1 cells assessed as reduction in parasite growth at 10 uM incubated for 72 hrs by luminescence analysis. The format is functional, organism-based.
The subject of data set [5] is Trypanosoma brucei. Briefly: Antitrypanosomal activity against bloodstream form of Trypanosoma brucei Lister 427 assessed as parasite growth inhibition at 10 uM incubated for 72 hrs by resazurin staining based assay. The format is functional, organism-based.
The subject of data set [6] is Leishmania infantum. Briefly: Antileishmanial activity against axenic amastigote stage of Leishmania infantum infected in THP-1 cells assessed as reduction in parasite growth incubated for 72 hrs by luminescence analysis. The format is functional, organism-based. Particulars: THP-1, 72 h.
Data set [7] is described as follows: Selectivity index, ratio of CC50 for cytotoxicity against human THP-1 cells to IC50 for antileishmanial activity against axenic amastigote stage of Leishmania infantum infected in THP-1 cells. The format is toxicity, cell-based. Particulars: read-out: Ratio CC50/IC50.

Active and inactive are the calls of the source. The calls are words filed in the database; no cut-off is given here. Bounds are passed on as bounds.

What is called IC50 is the point on the concentration scale where inhibition reaches its midpoint. A word on the CC50: it is the concentration giving 50% cytotoxicity. For `CC(C)[C@@H]1NC(=O)[C@H](Cc2c[nH]c3ccccc23)n2c1nc1ccccc1c2=O`, the half-maximal inhibitory concentration (IC50) in the data set with Plasmodium falciparum is greater than 10 µM; with Trypanosoma brucei [2], 4.6 µM. Moreover, in the data set on V79, the LD50 entry is recorded as “Not Active”. Further, the CC50 at 72 h in data set [1] was greater than 100 µM. Further, the selectivity ratio in data set [3] is greater than 21.7. Besides, the inhibition result with Leishmania infantum [4] was “inactive”.
As for `CC[C@H](C)[C@@H]1NC(=O)[C@@H](Cc2c[nH]c3ccccc23)n2c1nc1ccccc1c2=O`, the IC50 in the data set with Plasmodium falciparum is greater than 10 µM. Moreover, in the data set on V79, the LD50 entry is “Not Active”.
Regarding `N=C(N)c1ccc(OCCCCCOc2ccc(C(=N)N)cc2)cc1` [PENTAMIDINE], the CC50 at 72 h in data set [1] is greater than 10 µM. In the data set on Leishmania infantum [4], the inhibition entry is “inactive”.
As to `CC(C)C[C@@H]1NC(=O)[C@@H](Cc2c[nH]c3ccccc23)n2c1nc1ccc(Cl)cc1c2=O`, the half-inhibitory concentration (IC50) in the data set on Plasmodium falciparum is greater than 10 µM. Moreover, in the data set with V79, the LD50 result is “Not Active”.
With `CC(C)C[C@@H]1NC(=O)[C@@H](Cc2c[nH]c3ccccc23)n2c1nc1ncccc1c2=O`, in the data set on Plasmodium falciparum, the IC50 worked out at 3.76 µM. Moreover, in the data set on V79, the LD50 result is listed as “Not Active”. In data set [1], the CC50 at 72 h is greater than 100 µM. In addition, the inhibition result in the data set on Trypanosoma brucei [5] and in the data set on Leishmania infantum [4] was “inactive” each time.
As to `CC(C)C[C@@H]1NC(=O)[C@@H](Cc2c[nH]c3ccccc23)n2c1nc1cnccc1c2=O`, the half-inhibitory concentration (IC50) in the data set with Plasmodium falciparum was 4 µM. In addition, in the data set on V79, the LD50 entry is “Not Active”. In addition, the CC50 at 72 h in [1] is greater than 100 µM. The inhibition result in the data set with Trypanosoma brucei [5] and with Leishmania infantum [4] was “inactive” throughout.
In the case of `O=C1N[C@@H](Cc2c[nH]c3ccccc23)c2nc3ccccc3c(=O)n2[C@@H]1Cc1c[nH]c2ccccc12`, the IC50 in the data set with Plasmodium falciparum is greater than 10 µM. Also, the LD50 result with V79 is “Not Active”.
Regarding `COc1ccc2nc3n(c(=O)c2c1)[C@H](Cc1c[nH]c2ccccc12)C(=O)N[C@H]3CC(C)C`, the 50% inhibitory concentration (IC50) with Plasmodium falciparum was greater than 10 µM. For the same compound, in the data set with V79, the LD50 entry was “Not Active”. The CC50 at 72 h in [1] is greater than 100 µM. In addition, the inhibition entry with Trypanosoma brucei [5] and in the data set with Leishmania infantum [4] was “inactive” throughout.
For the compound `C[C@H]1NC(=O)[C@@H](Cc2c[nH]c3ccccc23)n2c1nc1ccccc1c2=O` [FUMIQUINAZOLINE G], in the data set with Plasmodium falciparum, the IC50 stood at 3.68 µM. Moreover, in the data set with V79, the LD50 entry is reported as “Not Active”.
Consider `CC(C)[C@H]1NC(=O)[C@H](Cc2c[nH]c3ccccc23)n2c1nc1ccccc1c2=O`, for which the IC50 in the data set with Plasmodium falciparum was greater than 10 µM. In addition, the LD50 entry in the data set with V79 is given as “Not Active”. Moreover, in data set [1], the 50% cytotoxic concentration (CC50) at 72 h was greater than 100 µM. The inhibition result in the data set with Trypanosoma brucei [5] and with Leishmania infantum [4] was “inactive” in each case.
`CC[C@H](C)[C@@H]1NC(=O)[C@@H](Cc2c[nH]c3ccccc23)n2c1nc1ccc(Br)cc1c2=O`: the half-inhibitory concentration (IC50) is greater than 10 µM with Plasmodium falciparum, 5.3 µM with Trypanosoma brucei [2] and 7.8 µM in the data set on Leishmania infantum [6]. The LD50 result in the data set on V79 is “Not Active”. Moreover, in [1], the cytotoxic concentration (CC50) at 72 h is 50 µM. Also, the selectivity ratio turned out to be 9.4 in [3] and 6.4 in data set [7].
For the compound `O=C1N[C@H](Cc2ccc(OCc3ccccc3)cc2)c2nc3ccccc3c(=O)n2[C@H]1Cc1c[nH]c2ccccc12`, the IC50 in the data set on Plasmodium falciparum was greater than 10 µM; in the data set on Trypanosoma brucei [2], 1.6 µM. Further, the LD50 result in the data set on V79 was “Not Active”. Besides, the half-maximal cytotoxic concentration (CC50) at 72 h in data set [1] was greater than 100 µM. Besides, the selectivity ratio in data set [3] was greater than 62.5. Also, the inhibition result in the data set with Leishmania infantum [4] is “inactive”.
As for `CC[C@H](C)[C@@H]1NC(=O)[C@@H](Cc2c[nH]c3ccccc23)n2c1nc1cc(Cl)c(Cl)cc1c2=O`, the results for the IC50 with Plasmodium falciparum and in the data set with Trypanosoma brucei [2] were 1.51 µM and 5.8 µM, respectively. For the same compound, the LD50 entry in the data set on V79 is “Not Active”. Further, the CC50 at 72 h in data set [1] is 50 µM. The selectivity ratio in data set [3] stood at 8.6. Moreover, the inhibition result with Leishmania infantum [4] was “inactive”.
Consider `CC(C)C[C@@H]1NC(=O)[C@@H](Cc2c[nH]c3ccccc23)n2c1nc1ccc(O)cc1c2=O`, for which the half-inhibitory concentration (IC50) in the data set on Plasmodium falciparum was 0.73 µM; in the data set with Trypanosoma brucei [2], 8.6 µM. The LD50 entry in the data set on V79 is “Not Active”. In data set [1], the half-maximal cytotoxic concentration (CC50) at 72 h is greater than 100 µM. Moreover, the selectivity ratio in data set [3] was greater than 11.6. The inhibition entry in the data set with Leishmania infantum [4] is “inactive”.
For `CC[C@H](C)[C@@H]1NC(=O)[C@@H](Cc2c[nH]c3ccccc23)n2c1nc1ccc(Cl)cc1c2=O`, the 50% inhibitory concentration (IC50) in the data set on Plasmodium falciparum was greater than 10 µM. Further, in the data set on V79, the LD50 result is “Not Active”.
With `CC(C)[C@H]1NC(=O)[C@@H](Cc2c[nH]c3ccccc23)n2c1nc1ccccc1c2=O`, the IC50 is 0.15 µM in the data set with Plasmodium falciparum and 7.1 µM in the data set with Trypanosoma brucei [2]. The LD50 entry in the data set with V79 is reported as “Not Active”. In [1], the CC50 at 72 h was greater than 100 µM. Besides, in data set [3], the selectivity ratio was greater than 14.1. The inhibition result in the data set on Leishmania infantum [4] was “inactive”.
`O=C1N[C@@H](Cc2ccc(OCc3ccccc3)cc2)c2nc3cc(Cl)c(Cl)cc3c(=O)n2[C@@H]1Cc1c[nH]c2ccccc12`: the IC50 in the data set on Plasmodium falciparum came out at 4 µM; with Trypanosoma brucei [2], 3.9 µM. Also, the LD50 entry in the data set with V79 was “Not Active”. For the same compound, the CC50 at 72 h in data set [1] is greater than 100 µM. Besides, the selectivity ratio in data set [3] is greater than 25.6. For the same compound, the inhibition result in the data set with Leishmania infantum [4] is “inactive”.
Take `Cc1ccc2nc3n(c(=O)c2c1)[C@H](Cc1c[nH]c2ccccc12)C(=O)N[C@H]3CC(C)C`: the IC50 with Plasmodium falciparum is greater than 10 µM. Further, the LD50 result in the data set on V79 is recorded as “Not Active”. Further, in [1], the CC50 at 72 h was greater than 100 µM. Further, the inhibition result in the data set on Trypanosoma brucei [5] and with Leishmania infantum [4] was “inactive” throughout.
`CC(C)C[C@@H]1NC(=O)[C@H](Cc2c[nH]c3ccccc23)n2c1nc1ccccc1c2=O`: the 50% inhibitory concentration (IC50) in the data set with Plasmodium falciparum is greater than 10 µM. For the same compound, the LD50 result with V79 is “Not Active”. Also, the half-maximal cytotoxic concentration (CC50) at 72 h in [1] stood at 50 µM. The inhibition entry in the data set with Trypanosoma brucei [5] and in the data set with Leishmania infantum [4] was “inactive” throughout.
Consider `CC(C)C[C@H]1NC(=O)[C@H](Cc2c[nH]c3ccccc23)n2c1nc1ccccc1c2=O`, for which the half-maximal inhibitory concentration (IC50) with Plasmodium falciparum is 2 µM. Also, the LD50 entry with V79 is listed as “Not Active”. Also, the CC50 at 72 h in data set [1] is greater than 100 µM. Besides, the inhibition entry in the data set on Trypanosoma brucei [5] and with Leishmania infantum [4] was “inactive” each time.
With `O=C1N[C@H](Cc2ccc(O)cc2)c2nc3ccccc3c(=O)n2[C@H]1Cc1c[nH]c2ccccc12`, the IC50 in the data set with Plasmodium falciparum turned out to be 4.18 µM. Also, the LD50 entry in the data set on V79 is “Not Active”. The 50% cytotoxic concentration (CC50) at 72 h in [1] is greater than 100 µM. For the same compound, the inhibition result in the data set with Trypanosoma brucei [5] and in the data set with Leishmania infantum [4] was “inactive” in each case.
Take `CCCCCCCCCCCCCCCCOP(=O)([O-])OCC[N+](C)(C)C` [MILTEFOSINE]: the cytotoxic concentration (CC50) at 72 h in data set [1] was 28.8 µM. Also, the inhibition result with Trypanosoma brucei [5] is “inactive”. For the same compound, the IC50 in the data set on Leishmania infantum [6] is 1 µM. Moreover, in data set [7], the selectivity ratio was found to be 28.8.
Take `CC(C)C[C@@H]1NC(=O)[C@@H](Cc2c[nH]c3ccccc23)n2c1nc1cc(I)c(I)cc1c2=O`: the concentration for half-maximal inhibition (IC50) in the data set with Plasmodium falciparum is greater than 10 µM. In the data set on V79, the LD50 entry is on record as “Not Active”.
Take `CC(C)C[C@@H]1NC(=O)[C@@H](Cc2c[nH]c3ccccc23)n2c1nc1cc(-c3nnnn3C)ccc1c2=O`: in the data set on Plasmodium falciparum, the half-inhibitory concentration (IC50) came to 1.02 µM. Further, in the data set with V79, the LD50 result was “Not Active”. Further, the CC50 at 72 h in data set [1] is greater than 50 µM. For the same compound, the inhibition entry in the data set on Trypanosoma brucei [5] and in the data set on Leishmania infantum [4] was “inactive” each time.
As to `CSCC[C@@H]1NC(=O)[C@@H](Cc2c[nH]c3ccccc23)n2c1nc1ccccc1c2=O`, the IC50 with Plasmodium falciparum is greater than 10 µM. Besides, the LD50 entry in the data set with V79 is recorded as “Not Active”.

Values taken from ChEMBL document CHEMBL5036370, “Indole-Containing Pyrazino[2,1-b]quinazoline-3,6-diones Active against Plasmodium and Trypanosomatids” (ACS Med Chem Lett, 2022).
